For the data set, the system named is CCRIS mutagenicity, Ames/micronucleus/aberration tests. As to the kind of experiment: CCRIS mutagenicity studies.
The mark [1] stands for this setting: Test System: AMES SALMONELLA TYPHIMURIUM, Strain/Indicator: TA98, Metabolic Activation: NONE, Method: PREINCUBATION
Where [2] appears, read: Test System: AMES SALMONELLA TYPHIMURIUM, Strain/Indicator: TA100, Metabolic Activation: NONE, Method: PREINCUBATION
[3] abbreviates: Test System: AMES SALMONELLA TYPHIMURIUM, Strain/Indicator: TA1535, Metabolic Activation: NONE, Method: PREINCUBATION
[4] abbreviates: Test System: AMES SALMONELLA TYPHIMURIUM, Strain/Indicator: TA98, Metabolic Activation: NONE, Method: STANDARD PLATE.
[5] abbreviates: Test System: AMES SALMONELLA TYPHIMURIUM, Strain/Indicator: TA100, Metabolic Activation: NONE, Method: STANDARD PLATE.

The structures appear in SMILES notation. Activity calls are given as the source filed them. The rule behind the calls is not given here.

On to `CC(=O)C(C)O` (stereo not given), for which the mutagenic call was “inactive; negative” under setting [1]; “inactive; negative” (Test System: AMES SALMONELLA TYPHIMURIUM, Strain/Indicator: TA98, Metabolic Activation: RAT, LIVER, S-9, AROCLOR 1254, Method: PREINCUBATION); “inactive; negative” under setting [2]; “inactive; negative” (Test System: AMES SALMONELLA TYPHIMURIUM, Strain/Indicator: TA100, Metabolic Activation: RAT, LIVER, S-9, AROCLOR 1254, Method: PREINCUBATION); “inactive; negative” (Test System: AMES SALMONELLA TYPHIMURIUM, Strain/Indicator: TA102, Metabolic Activation: NONE, Method: PREINCUBATION); “inactive; negative” (Test System: AMES SALMONELLA TYPHIMURIUM, Strain/Indicator: TA102, Metabolic Activation: RAT, LIVER, S-9, AROCLOR 1254, Method: PREINCUBATION). The mutagenic call is “inactive; negative” under setting [3]; “inactive; negative” (Test System: AMES SALMONELLA TYPHIMURIUM, Strain/Indicator: TA1537, Metabolic Activation: NONE, Method: PREINCUBATION); “inactive; negative” (Test System: AMES SALMONELLA TYPHIMURIUM, Strain/Indicator: TA1538, Metabolic Activation: NONE, Method: PREINCUBATION); “inactive; negative” (Test System: E. COLI, Strain/Indicator: WP2 UVRA, Metabolic Activation: NONE, Method: PREINCUBATION).

In the case of `Oc1ccc2ccc3[nH]c4ccc5ccccc5c4c3c2c1`, the mutagenic call was “active; positive” under setting [4]; “active; positive” (Test System: AMES SALMONELLA TYPHIMURIUM, Strain/Indicator: TA98, Metabolic Activation: RAT, LIVER, S-9, 3-METHYLCHOLANTHRENE, Method: STANDARD PLATE); “active; positive” under setting [5]; “active; positive” (Test System: AMES SALMONELLA TYPHIMURIUM, Strain/Indicator: TA100, Metabolic Activation: RAT, LIVER, S-9, 3-METHYLCHOLANTHRENE, Method: STANDARD PLATE); “inactive; negative” (Test System: AMES SALMONELLA TYPHIMURIUM, Strain/Indicator: TM677, Metabolic Activation: NONE, Method: PREINCUBATION); “active; positive” (Test System: AMES SALMONELLA TYPHIMURIUM, Strain/Indicator: TM677, Metabolic Activation: RAT, LIVER, S-9, 3-METHYLCHOLANTHRENE (1%), Method: PREINCUBATION). Further, the mutagenic call (Test System: AMES SALMONELLA TYPHIMURIUM, Strain/Indicator: TM677, Metabolic Activation: RAT, LIVER, S-9, 3-METHYLCHOLANTHRENE (10%), Method: PREINCUBATION) is “active; positive” and the mutagenic call (Test System: AMES SALMONELLA TYPHIMURIUM, Strain/Indicator: TM677, Metabolic Activation: RAT, LIVER, S-9, AROCLOR 1254 (10%), Method: PREINCUBATION) is “active; positive”.

Take `COC(=O)c1ccc(C=O)cc1`: the mutagenic call was “inactive; negative” (Test System: AMES SALMONELLA TYPHIMURIUM, Strain/Indicator: TA97, Metabolic Activation: HAMSTER, LIVER, S-9, AROCLOR 1254 (10 OR 30%), Method: PREINCUBATION); “inactive; negative” (Test System: AMES SALMONELLA TYPHIMURIUM, Strain/Indicator: TA97, Metabolic Activation: NONE, Method: PREINCUBATION); “inactive; negative” (Test System: AMES SALMONELLA TYPHIMURIUM, Strain/Indicator: TA97, Metabolic Activation: RAT, LIVER, S-9, AROCLOR 1254 (10 OR 30%), Method: PREINCUBATION); “inactive; negative” (Test System: AMES SALMONELLA TYPHIMURIUM, Strain/Indicator: TA98, Metabolic Activation: HAMSTER, LIVER, S-9, AROCLOR 1254 (10 OR 30%), Method: PREINCUBATION); “inactive; negative” under setting [1]; “inactive; negative” (Test System: AMES SALMONELLA TYPHIMURIUM, Strain/Indicator: TA98, Metabolic Activation: RAT, LIVER, S-9, AROCLOR 1254 (10 OR 30%), Method: PREINCUBATION). Besides, the mutagenic call by setting is: (Test System: AMES SALMONELLA TYPHIMURIUM, Strain/Indicator: TA100, Metabolic Activation: HAMSTER, LIVER, S-9, AROCLOR 1254 (10 OR 30%), Method: PREINCUBATION) “inactive; negative”; under setting [2], “inactive; negative”; (Test System: AMES SALMONELLA TYPHIMURIUM, Strain/Indicator: TA100, Metabolic Activation: RAT, LIVER, S-9, AROCLOR 1254 (10 OR 30%), Method: PREINCUBATION) “inactive; negative”; (Test System: AMES SALMONELLA TYPHIMURIUM, Strain/Indicator: TA1535, Metabolic Activation: HAMSTER, LIVER, S-9, AROCLOR 1254 (10 OR 30%), Method: PREINCUBATION) “inactive; negative”; under setting [3], “inactive; negative”; (Test System: AMES SALMONELLA TYPHIMURIUM, Strain/Indicator: TA1535, Metabolic Activation: RAT, LIVER, S-9, AROCLOR 1254 (10 OR 30%), Method: PREINCUBATION) “inactive; negative”.

As for `CCc1cccc2cccnc12`, the mutagenic call (Test System: AMES SALMONELLA TYPHIMURIUM, Strain/Indicator: TA100, Metabolic Activation: S-9, Method: PREINCUBATION) is “active; positive”.

With `CC(=O)ON(C(C)=O)c1ccccc1C`, the mutagenic call is “inactive; negative” under setting [4]; “inactive; negative” (Test System: AMES SALMONELLA TYPHIMURIUM, Strain/Indicator: TA98, Metabolic Activation: RAT, LIVER, S-9, AROCLOR 1254, Method: STANDARD PLATE); “inactive; negative” under setting [5]; “inactive; negative” (Test System: AMES SALMONELLA TYPHIMURIUM, Strain/Indicator: TA100, Metabolic Activation: RAT, LIVER, S-9, AROCLOR 1254, Method: STANDARD PLATE).

The record behind these values is PubChem BioAssay AID1259407 (Chemical Carcinogenesis Research Information System (CCRIS), 2018).
